From US20060257875A1, “Affinity screening using "one-bead-one-compound" libraries” (Carlsberg A/S, priority 2003, published 2006)

How the values were obtained:
[1] = system: Serum induced (hypertrophied) Myocytes proteins; assay: Solid phase screening of small molecule biaryl Library 7 with labeled myocyte proteins; assay type: binding, neonatal Wistar rats
[2] = system: normal porcine macrophage proteins; assay: Solid phase screening of Library 4 with labeled porcine viral and macrophage proteins; assay type: binding; conditions: Normal Macrophages
Description: Alternatively, the fluorescent ligand library beads containing bound protein obtained as described in Examples 47, 48, 49 and 51 were sorted using a COPAS (250) NF Bead Sorter (Union Biometrica, Somerville, Mass.) equipped with a dual detector. Both the cyanine dyes used in the labeling procedure, namely Cy 2 (emission wavelength—510 nm) and Cy 3 (emission wavelength—570 nm) were simultaneously excited at […] The bead selection window was then set-up such that all beads containing significant green fluorescence and no red flourescence were isolated. The unselected beads were then resorted to obtain beads containing red fluorescence (proteins from basal cells). […]
(§1) A typical analysis employed 100-300 laser shots. […] The possible identity of the ligand was determined (Narrowed down) by comparing the recorded mass of the ligand with the masses of all possible compounds formed in the library. […]
(§2) Isolated proteins that bound to specific ligands were identified using peptide mass fingerprinting. Mass spectra were recorded on a Bruker Reflex m MALDI time-of-flight mass spectrometer (Bruker-Daltonics, Bremen, Germany) operated in the positive reflectron mode using delayed extraction. […]

[3] = system: basal myocyte protein; assay: Solid phase screening of Library 5 with labeled myocyte protein; assay type: binding, neonatal Wistar rats; conditions: Normal Myocytes
Description: Myocytes were prepared from 1 to 5 day old neonatal Wistar rats (University of Copenhagen) according to literature procedure described in Busk et al., 2002, Cardiovasc. Res., 56: 64-75 and plated into eight P10 culture plates at 6 million cells/plate.
Protein was extracted from myocytes prepared as described above for Example 9, using a new procedure modified from existing protocols, primarily: Arrott, et al., 1998, Anal Biochem. 258: 1-18. The media was removed from plates and adhered cells were treated for 10 minutes with ice cold phosphate buffer (0.25 mL, 10 mM, pH 7.5, augmented with 0.15 M NaCl 60 mM Benzamidine HCl, 5 mM EDTA, 10 μg/n E-64, 10 μg/mL Leu-peptin, 10 μg/mL Pepstatin A, and 1 mM PMSF). The cells were scraped off the plates and then lysed (on ice) in a sonicator (2×) using 10 seconds off/10 seconds on cycles.
The resulting suspension was augmented with CHAPS, DTT, and urea to a final concentration of CHAPS (1% w/v), DTT (5 mM), and urea (8 M). After 10-15 minutes on ice, the solution was centrifuged for 10 minutes at 15,000 rpm at 4° C. The supernatant was removed and protein content quantified using the NanoOrange Protein test (Molecular Probes, Eugene, Oreg.): Total protein recovered: 70.5 μg for PE-treated cells and 60 μg for basal cells.
Fluorescent dye Oregon Green 514 (OR) (Molecular Probes) was used to label the healthy/basal cells while Rhodamine Red (RR) (Molecular Probes) was used to label the PE-treated cells. The labeling procedures were carried out according to the manufacturer's protocol. […]
as §1, §2

[4] = biological target: isoleucine tRNA synthetase (Escherichia coli, UniProt P00956); conditions: Merck Manual; cited from earlier work
Chain of isoleucine tRNA synthetase (P00956 whole entry): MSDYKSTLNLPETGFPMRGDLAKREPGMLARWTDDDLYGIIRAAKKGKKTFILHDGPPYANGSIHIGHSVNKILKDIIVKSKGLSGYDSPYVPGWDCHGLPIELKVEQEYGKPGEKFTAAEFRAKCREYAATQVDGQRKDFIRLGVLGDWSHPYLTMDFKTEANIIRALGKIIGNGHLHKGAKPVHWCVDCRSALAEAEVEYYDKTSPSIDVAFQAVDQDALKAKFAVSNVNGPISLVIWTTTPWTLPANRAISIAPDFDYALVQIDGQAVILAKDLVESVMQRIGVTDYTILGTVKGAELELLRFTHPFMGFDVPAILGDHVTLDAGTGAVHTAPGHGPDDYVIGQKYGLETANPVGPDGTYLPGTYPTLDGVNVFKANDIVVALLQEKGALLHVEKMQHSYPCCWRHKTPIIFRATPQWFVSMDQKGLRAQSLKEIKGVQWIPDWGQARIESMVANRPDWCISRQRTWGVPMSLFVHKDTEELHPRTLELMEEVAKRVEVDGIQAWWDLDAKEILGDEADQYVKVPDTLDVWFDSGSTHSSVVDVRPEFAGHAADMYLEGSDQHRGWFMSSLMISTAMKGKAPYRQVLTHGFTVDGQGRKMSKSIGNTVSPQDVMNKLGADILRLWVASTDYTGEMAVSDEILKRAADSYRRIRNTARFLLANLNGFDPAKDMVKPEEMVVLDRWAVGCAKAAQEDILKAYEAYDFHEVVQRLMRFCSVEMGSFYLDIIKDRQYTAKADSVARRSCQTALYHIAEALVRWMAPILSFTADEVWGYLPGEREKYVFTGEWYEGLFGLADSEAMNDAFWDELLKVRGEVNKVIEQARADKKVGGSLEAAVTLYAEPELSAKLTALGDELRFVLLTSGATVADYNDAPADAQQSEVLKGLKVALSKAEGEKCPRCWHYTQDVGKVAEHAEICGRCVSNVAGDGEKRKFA

[5] = system: Myocytes; assay: Proliferation of myocytes with phenylephrine (in vitro model of hypertrophy); assay type: cell-based, neonatal Wistar rats; conditions: 10 μM phenylephrine (PE); cells grown for two more days
[6] = biological target: T1, Phosphomannose isomerase (Candida albicans, UniProt P34948); conditions: in Candida; Wells et al, 1996; cited from earlier work
T1 sequence (P34948 1-441): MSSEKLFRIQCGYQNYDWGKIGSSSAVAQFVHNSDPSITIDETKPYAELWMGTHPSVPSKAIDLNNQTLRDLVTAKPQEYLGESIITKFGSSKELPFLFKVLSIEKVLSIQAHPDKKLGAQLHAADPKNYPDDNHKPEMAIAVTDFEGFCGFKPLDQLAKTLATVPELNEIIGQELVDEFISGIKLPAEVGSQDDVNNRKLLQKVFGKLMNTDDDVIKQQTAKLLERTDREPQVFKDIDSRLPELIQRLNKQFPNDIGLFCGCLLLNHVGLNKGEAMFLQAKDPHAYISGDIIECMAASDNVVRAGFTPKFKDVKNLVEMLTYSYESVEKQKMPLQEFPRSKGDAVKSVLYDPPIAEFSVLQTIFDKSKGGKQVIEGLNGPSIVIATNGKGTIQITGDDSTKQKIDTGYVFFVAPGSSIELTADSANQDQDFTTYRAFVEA

In the case of O=C(O)CNC(=O)c1ccc(-c2ccco2)o1, the “Identified Protein(s)” value [1] is reported as “Serine-threonine kinase (gi 474842); Hemopexin precur- sor (Beta-1B-glycoprotein) (P02790); 116 kDa U5 small nuclear ribonucleoprotein component (O08810)”.

For COc1ccc(Br)c(OC)c1C(=O)NC1(C(=O)O)CCCCC1, the “Identified Protein(s)” value [1] was “Translin-associated protein X (Q99598); Hypothetical Protein ORF-1137 (P11260); Integrin alpha-1 (Laminin and collagen receptor VLA-1,CD49a) (P56199_”.

With C[C@H](NC(=O)[C@@H]1CCCCNC(=O)N1)C(=O)O [HY1] the “Identified Protein(s)” value [2] was “Protein kinase C binding protein 1 also contains a zinc finger domain with protein 8) (Q9U1U4); Guanine nucle- otide-binding protein G(S), alpha subunit (Adenylate cy- clase-stimulating G alpha protein) (P048949)”.

With O=C1NCCC[C@@H](C(=O)N[C@@H](CCc2ccccc2)C(=O)O)N1 [HY2] the “Identified Protein(s)” value [2] was “Protein kinase byr2 (Protein kinase ste8) (MAP kinase) (P28829); Similar to protein kinase 2 (Testicular) (Q885R6); Thiamine-triphosphatase (Q8CgV7)”.

With O=C(O)c1ccc(CN2C[C@@H](CN(C(=O)c3ccccc3)C3(C(=O)O)CCCC3)N3C(=O)c4ccccc4[C@H]23)cc1 [HY3] the “Identified Protein(s)” value [3] was “NADH-ubiquinone oxidoreductase B14 subunit (Q9CQZ5)”.

In the case of O=C1c2ccccc2[C@@H]2N(Cc3ccc(O)cc3)C[C@@H](CN(C(=O)CCc3ccccc3)C3(C(=O)O)CCCC3)N12 [HY4], the “Identified Protein(s)” value [3] is reported as “NADH-ubiquinone oxidoreductase B14 subunit (Q9CQZ5)”.

In the case of CC(CCc1ccccc1)N1C[C@@H](CN2Cc3ccccc3CC2C(=O)O)N2C(=O)c3ccccc3[C@H]12 (stereo partly shown) [HY5], the “Identified Protein(s)” value [3] is reported as “Myosin Va (Myosin 5A, dilute myosin heavy chain, non muscle (Q9Y411)”.

For C/C(=C\C(=O)OCCCCCCCCC(=O)O)C[C@@H]1OC[C@H](C[C@@H]2O[C@H]2[C@@H](C)[C@H](C)O)[C@@H](O)[C@H]1O [Mupirocin], the “inhibition of isoleucine tRNA synthetase” value [4] is given as “inhibits the enzyme isoleucine tRNA synthetase”.

With CNC[C@H](O)c1cccc(O)c1 [PE, phenylephrine] the “cell size at time of harvest” value [5] was “significantly enlarged”.

In the case of Nc1ccc(S(=O)(=O)Nc2ncccn2)cc1 [sulfadiazene], the “inhibition of phosphomannose isomerase” value [6] is listed as “inhibited”.
